Data published in US20200113901A1, “METHODS OF USING EHMT2 INHIBITORS” (Epizyme, Inc., priority 2017, published 2020).

Key:
[1] = system: H3K9me2 (H3 di methyl K9); test: H3K9me2 western blot in Prader Willi Syndrome patient fibroblast cell lines; format: cell-based, human; conditions: PWS patient fibroblast cell lines GM21889 and GM21890; 0.25 μM, 1 μM, 5 μM; 7 days; western blot densitometry; FIG. 1
Procedure: (§1) Fibroblast cell lines were obtained from Coriell Institute (GM21889 and GM21890). Cells were plated in 6 well plates at 0.13 or 0.26 e6 cells per well. Cells were treated for 7 days with 0, 0.25 μM, 1 μM, or 5 μM Compound No. 205 or 4 μM UNC0638 (positive control) with reseeding into 100 mm dishes and retreatment at day 4. On day 7 cells were lysed in 1X RIPA buffer (Millipore, #20-188) with 0.1% SDS and Protease Inhibitor Cocktail tablet (Roche, #04693159001), and sonicated on ice before being spun at 4° C. Clarified supernatant was assayed for protein concentration by BCA (Pierce, #23225). 25 μg of lysate was used for western blots. Antibodies used for Western blotting include H3 (4499; Cell Signaling) at 1:1000, H3K9me2 (ab1220; Abcam) at 1:1000, SNRPN (PA 1775; BosterBio) at 1:1000, and β-actin (ab8224; Abcam) at 1:2500. Imaging was performed using a Licor Odyssey, and changes in the target band were quantified by densitometry. Ratios between H3K9me2 and H3 were calculated and compound treated samples were normalized to controls (DMSO). Increases in SNRPN protein expression was observed upon increasing concentrations of Compound No. 205. See, e.g., FIGS. 1 and 2.

SNRPN protein = SNRPN protein induction (western blot) in Prader Willi Syndrome patient fibroblast cell lines; format: cell-based, human; conditions: PWS patient fibroblast cell lines GM21889 and GM21890, increasing concentrations 0.25 μM, 1 μM, 5 μM, 7 days, FIG. 2
Procedure: as §1

CNc1cc(C)nc(Nc2ccc(OC)c(OCCCN3CCCC3)c2)n1 [Compound No. 205]
H3 di methyl K9 (ratio H3K9me2 to H3, normalized to DMSO control) [1]: decrease
SNRPN protein expression (SNRPN protein): Increases
